From US9770452B2, “Quinoxaline derivatives as GPR6 modulators” (Takeda Pharmaceutical Company Limited, priority 2012, dated 2017)
pIC50: −log10 of the molar value. Counter-ions that a name gives are not always drawn. Like-named read-outs stand apart in the source and are kept apart here.

Molecular target: T1, GPR6 receptor (Homo sapiens, UniProt P46095)
T1 construct: expressed in transfected cells
Test: Inhibition of cAMP Activity of GPR6 In Vitro Assay (CHO-K1 cells, HTRF cAMP)
Assay type: cell-based
How it was run: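 CHO-K1 cells with doxycycline-induced (1 μg/ml, 20 h) GPR6 treated with compounds 45 min at 37 °C in Ringer's buffer (pH 7.4) with 0.5% fatty acid free BSA. Constitutive cAMP measured by Lance HTRF Ultra cAMP; IC50 from four-parameter logistic fit.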

[1] = compounds of Compound Table 1, inhibition of constitutive cAMP activity of GPR6 expressed in CHO-K1 cells, approximate IC50, read-out: IC50
[2] = compounds of Compound Table 2, inhibition of constitutive cAMP activity of GPR6 expressed in CHO-K1 cells, approximate IC50, read-out: IC50

T1 sequence (P46095 whole entry): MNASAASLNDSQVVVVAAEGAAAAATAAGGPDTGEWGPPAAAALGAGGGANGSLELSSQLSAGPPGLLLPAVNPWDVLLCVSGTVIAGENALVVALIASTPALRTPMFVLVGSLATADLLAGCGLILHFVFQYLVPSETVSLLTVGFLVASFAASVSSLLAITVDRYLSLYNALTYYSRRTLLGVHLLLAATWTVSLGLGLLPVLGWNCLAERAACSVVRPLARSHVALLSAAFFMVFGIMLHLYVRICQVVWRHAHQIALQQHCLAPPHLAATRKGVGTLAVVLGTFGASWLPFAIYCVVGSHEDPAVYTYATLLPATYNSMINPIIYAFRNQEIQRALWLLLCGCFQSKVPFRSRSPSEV

| Compound | pIC50 [1] | further results |
| --- | --- | --- |
| 3-fluoro-4-((1-(3-(isopropylamino)pyrazino[2,3-d]pyridazin-2-yl)piperidin-4-yl)oxy)phenol, 2,2,2-trifluoroacetic acid salt [Cpd 648] | 7.19 | – |
| COc1ccc(OC2CCN(c3nc4c(N5CCOCC5)nccc4nc3NC3CC3)CC2)c(F)c1 [Cpd 606, N-cyclopropyl-3-(4-(2-fluoro-4-methoxyphenoxy)piperidin-1-yl)-5-morpholinopyrido[3,4-b]pyrazin-2-amine, 2,2,2-trifluoroacetic acid salt] | – | pIC50: 6.14 |
| CC(C)C1CN(c2nc3ccccc3nc2NC2CC2)CCN1Cc1cc(Cl)ccc1Cl (centres unmarked) [Compound Table 2: Cpd 9, N-cyclopropyl-3-(4-(2,5-dichlorobenzyl)-3-isopropylpiperazin-1-yl)quinoxalin-2-amine] | – | pIC50 [2]: 4.75 |
| Clc1cccc(CN2CCN(c3nc4ccccc4nc3Nc3ccc(Br)cc3)CC2)c1 [Cpd 21, N-(4-bromophenyl)-3-(4-(3-chlorobenzyl)piperazin-1-yl)quinoxalin-2-amine, 2,2,2-trifluoroacetic acid salt] | 5.52 | – |
| 3-(cyclopropylamino)-2-(4-(2,5-dichlorobenzyl)piperazin-1-yl)quinoxaline-5-carbonitrile, 2,2,2-trifluoroacetic acid salt [Cpd 248] | 5.73 | – |
| 6-bromo-N-cyclopropyl-3-(4-((2,5-difluorophenyl)fluoromethyl)piperidin-1-yl)quinoxalin-2-amine, 2,2,2-trifluoroacetic acid salt [Cpd 500] | 6.80 | – |
| Clc1ccc(NC2CCN(c3nc4ccccc4nc3NC3CC3)CC2)cc1 [Cpd 413, 3-(4-((4-chlorophenyl)amino)piperidin-1-yl)-N-cyclopropylquinoxalin-2-amine, 22,2,2-trifluoroacetic acid salt] | 7.72 | – |
| 3-(4-(5-(tert-butyl)-2-methoxybenzyl)piperazin-1-yl)-N-cyclopropylpyrido[3,4-b]pyrazin-2-amine, 2,2,2-trifluoroacetic acid salt [Cpd 306] | 6.42 | – |
| 2-(cyclopropylamino)-3-(4-((2,5-dimethoxyphenyl)sulfonyl)piperazin-1-yl)quinoxaline-6-carbonitrile, 2,2,2-trifluoroacetic acid salt [Cpd 329] | 5.89 | – |
| O=C(c1ccc(F)c(Br)c1)N1CCN(c2nc3ccccc3nc2NC2CC2)CC1 [Cpd 89, (3-bromo-4-fluorophenyl)(4-(3-(cyclopropylamino)quinoxalin-2-yl)piperazin-1-yl)methanone, 2,2,2-trifluoroacetic acid salt] | 5.32 | – |
| (4-chlorophenyl)(4-(3-(pyridin-3-ylamino)quinoxalin-2-yl)piperazin-1-yl)methanone, 2,2,2-trifluoroacetic acid salt [Cpd 223] | 5.25 | – |
| (R)-2-(cyclopropylamino)-3-(4-((2,4-difluorophenyl)fluoromethyl)piperidin-1-yl)-N,N-dimethylpyrido[3,4-b]pyrazine-7-carboxamide, 2,2,2-trifluoroacetic acid salt [Cpd 578] | 5.14 | – |
| N-cyclopropyl-3-(4-(2,5-difluorophenoxy)piperidin-1-yl)pyrido[3,4-b]pyrazin-2-amine, 2,2,2-trifluoroacetic acid salt [Cpd 431] | 6.77 | – |
| 2-(cyclopropylamino)-3-(4-((4-(trifluoromethoxy)phenyl)sulfonyl)piperazin-1-yl)quinoxaline-6-carbonitrile, 2,2,2-trifluoroacetic acid salt [Cpd 283] | 6.38 | – |
| 3-(4-(5-cyano-2-(dimethylcarbamoyl)benzoyl)piperidin-1-yl)-2-(cyclopropylamino)-N,N-dimethylpyrido[3,4-b]pyrazine-7-carboxamide [Cpd 596] | 7.59 | – |
| O=C(c1cc(Cl)ccc1Cl)N1CCN(c2nc3ccccc3nc2NC2CCCC2)CC1 [Cpd 39, (4-(3-(cyclopentylamino)quinoxalin-2-yl)piperazin-1-yl)(2,5-dichlorophenyl)methanone, 2,2,2-trifluoroacetic acid salt] | 5.21 | – |
| N2-cyclopropyl-3-(4-(2-fluoro-4-methoxyphenoxy)piperidin-1-yl)-N5,N5-dimethylpyrido[3,4-b]pyrazine-2,5-diamine, 2,2,2-trifluoroacetic acid salt [Cpd 607] | 7.37 | – |
| 2-(cyclopropylamino)-3-(4-((2,5-dichlorophenyl)sulfonyl)piperazin-1-yl)quinoxaline-6-carbonitrile [Cpd 226] | 6.24 | – |

| Compound | pIC50 [1] | further results |
| --- | --- | --- |
| 4-((1-(2-(cyclopropylamino)pyrido[3,4-b]pyrazin-3-yl)piperidin-4-yl)oxy)-N,N-dimethylbenzamide, 2,2,2-trifluoroacetic acid salt [Cpd 588] | 5.56 | – |
| 3-(4-((4-chloro-2-oxopyridin-1(2H)-yl)methyl)piperidin-1-yl)-2-(cyclopropylamino)quinoxaline-6-carbonitrile [Cpd 526] | 6.17 | – |
| CS(=O)(=O)c1ccc(C(=O)N2CCN(c3nc4ccccc4nc3NC3CC3)CC2)c(Cl)c1 [Cpd 67, (2-chloro-4-(methylsulfonyl)phenyl)(4-(3-(cyclopropylamino)quinoxalin-2-yl)piperazin-1-yl)methanone] | 5.99 | – |
| 3-(4-(2,4-difluorobenzyl)piperazin-1-yl)-2-(isopropylamino)-N,N-dimethylpyrido[3,4-b]pyrazine-7-carboxamide, 2,2,2-trifluoroacetic acid salt [Cpd 634] | 8.22 | – |
| N-cyclopropyl-3-(4-(2-fluoro-4-(methylthio)phenoxy)piperidin-1-yl)pyrazino[2,3-d]pyridazin-2-amine, 2,2,2-trifluoroacetic acid salt [Cpd 618] | 7.92 | – |
| (S)-3-(cyclopropylamino)-2-(4-((2,4-difluorophenyl)fluoromethyl)piperidin-1-yl)quinoxaline-6-carbonitrile [Cpd 509] | 7.31 | – |
| 2-(cyclopropylamino)-3-(4-(2-fluoro-4-methoxyphenoxy)piperidin-1-yl)pyrido[3,4-b]pyrazine-5-carbonitrile, 2,2,2-trifluoroacetic acid salt [Cpd 605] | 7.44 | – |
| N-cyclopropyl-3-(4-(4-ethoxyphenoxy)piperidin-1-yl)pyrido[3,4-b]pyrazin-2-amine, 2,2,2-trifluoroacetic acid salt [Cpd 601] | 7.66 | – |
| c1ccc2nc(N3CCN(Cc4ccncc4)CC3)c(NC3CC3)nc2c1 [Cpd 17, N-cyclopropyl-3-(4-(pyridin-4-ylmethyl)piperazin-1-yl)quinoxalin-2-amine, 2,2,2-trifluoroacetic acid salt] | 4.59 | – |
| (R)-7-chloro-N-cyclopropyl-3-(4-((2,4-difluorophenyl)fluoromethyl)piperidin-1-yl)pyrido[3,4-b]pyrazin-2-amine, 2,2,2-trifluoroacetic acid salt [Cpd 523] | 6.47 | – |
| (4-chloro-2-fluorophenyl)(4-(2-((2,2-difluoroethyl)amino)pyrido[3,4-b]pyrazin-3-yl)piperazin-1-yl)methanone, 2,2,2-trifluoroacetic acid salt [Cpd 369] | 6.40 | – |
| N-cyclopropyl-3-(4-((4-fluorophenyl)sulfonyl)piperidin-1-yl)-7-methylpyrido[3,4-b]pyrazin-2-amine 2,2,2-trifluoroacetate [Cpd 654] | 7.52 | – |
| Clc1ccc(Cl)c(CN2CCN(c3nc4ccccc4nc3NCC3CC3)CC2)c1 [Cpd 42, N-(cyclopropylmethyl)-3-(4-(2,5-dichlorobenzyl)piperazin-1-yl)quinoxalin-2-amine, 2,2,2-trifluoroacetic acid salt] | 5.50 | – |
| CC(C)CNc1nc2ccccc2nc1N1CCN(Cc2cc(Cl)ccc2Cl)CC1 [Cpd 110, 3-(4-(2,5-dichlorobenzyl)piperazin-1-yl)-N-isobutylquinoxalin-2-amine, 2,2,2-trifluoroacetic acid salt] | 5.22 | – |
| (2-bromophenyl)(1-(2-(cyclopropylamino)pyrido[3,4-b]pyrazin-3-yl)piperidin-4-yl)methanone, 2,2,2-trifluoroacetic acid salt [Cpd 585] | 5.22 | – |
| Cc1cc2nc(NC3CC3)c(C3CCN(Cc4ccc(F)cc4F)CC3)nc2cn1 [Compound Table 2: Cpd 6, N-cyclopropyl-3-(1-(2,4-difluorobenzyl)piperidin-4-yl)-7-methylpyrido[3,4-b]pyrazin-2-amine, 2,2,2-trifluoroacetic acid salt] | – | pIC50 [2]: 6.28 |
| N-cyclopropyl-3-(4-((2,4-difluorophenyl)difluoromethyl)piperidin-1-yl)pyrido[3,4-b]pyrazin-2-amine [Cpd 545] | 7.35 | – |
